Measurements reported in publication doi:10.1101/2025.02.17.638454, “Synergistic RAS-MAPK and AKT Activation in MYC-Driven Tumors via Adjacent PVT1 Rearrangements” (bioRxiv, 2025).
No end group written: not given here.

Tests used:
[1] = test system: phospho-MEK1/2, phospho-ERK1/2, phospho-p90RSK (RAS/MAPK pathway); assay: Western blot of RAS/MAPK effectors in NCI-H1792; assay type: cell-based; conditions: NCI-H1792 (mutant KRAS^G12C), doxycycline-induced HNB, 1 μg/mL Dox 48 h
Protocol: (§1) For whole-cell lysate, the cell pellet was resuspended in RIPA buffer (Cell Signaling Technologies, Danvers, MA) supplemented with a protease inhibitor cocktail (Cell Signaling Technologies) and incubated on ice for 20 minutes. The lysate was then centrifuged at 14,000 revolutions/minute for 10 minutes at 4°C, and the supernatant was harvested. Protein concentration was quantified by BCA Protein Assay Kit (Thermo Fisher Scientific) as per kit protocol. Next, 20 μg of whole-cell lysate was electrophoresed on a 4%–20% gradient polyacrylamide gel with SDS (Bio-Rad, Hercules, CA) and electroblotted onto polyvinylidene difluoride membranes (Bio-Rad). Membranes were blocked in Tris-buffered saline with 5% nonfat milk and 0.1% Tween and probed with antibodies. Bound proteins were detected with horseradish-peroxidase–conjugated secondary antibodies (Cell Signaling Technologies) and SuperSignal West Femto (Thermo Fisher Scientific). […]
The HNB ORF and eGFP (control) were cloned in an inducible lentivirus expression, TRE-gateway plasmid (pLIX_403, Addgene, #41395). […] The protein lysates were collected and quantified using the previously described protocol. […] Bound proteins were detected with horseradish-peroxidase–conjugated secondary antibodies (Cell Signaling Technologies) and SuperSignal West Femto (Thermo Fisher Scientific). […]

HNB = assay: ITC of HNB into assay buffer (self-interaction, baseline control); assay type: binding; conditions: 500 µM HNB into ITC assay buffer, 25°C
Protocol: Isothermal titration calorimetry (ITC) measures the change in temperature when two or more biomolecules bind to each other in a solution. The assay provides the binding affinity of ligands to proteins and the entropy or enthalpy of the reaction. Recombinant KRAS protein (#ab156968, Abcam) was dialyzed into the ITC assay buffer (20mM Tris pH 8.0, 100mM NaCl, 5mM Beta-mercaptoethanol) and concentrated to about 100 μM. During ITC titration twenty 6 μl injections (with intervals of 150 seconds) of 500μM HNB were made into the ITC cell containing 93 μM KRAS. Titration of 500μM HNB into the ITC assay buffer under the same conditions was used as the baseline control. ITC experiments were performed using Affinity ITC instrument (TA Instruments) at 25°C. The data was fitted and analyzed using NanoAnalyze software provided by TA Instruments. […]
bioRxiv preprint doi: https://doi.org/10.1101/2025.02.17.638454; this version posted February 22, 2025. The copyright holder for this preprint (which was not certified by peer review) is the author/funder, who has granted bioRxiv a license to display the preprint in perpetuity. It is made available under aCC-BY 4.0 International license. […]

MYC = assay: Western blot of MYC in SK-PN-DW; assay type: cell-based, human; conditions: si.CircPVT1 vs si.Ctrl, n=3, unpaired t test, 0.0049
Protocol: as §1

SK-PN-DW cells = assay: Proliferation assay SK-PN-DW; assay type: cell-based, human; conditions: si.CircPVT1 vs si.Ctrl, n=3, two-way ANOVA, P<0.0001
From the text: Cancer cell lines: COLO-320DM, SK-PN-DW, U2OS, BxPC-3, DU145, SKBR-3 and, NCI-H1792 were obtained from American Type Culture Collection (Rockville, MD) and grown in their required growth medium per the American Type Culture Collection description. D458 and MB002 were obtained from Dr. Michael Taylor’s lab at SickKids hospital, Toronto. Cell line identity for the master stocks were verified by STR genotyping (IDEXX BioResearch)

Substance | phosphorylation of MEK1/2, ERK1/2 and p90RSK [1] | HNB self-interaction (HNB) | MYC protein (MYC) | cellular proliferation (SK-PN-DW cells)
MKTQLGAVKGFLHV [HNB] | significantly dampened the phosphorylation | not detected | – | –
si.CircPVT1: siRNA targeting the junction sequence of CircPVT1, 5’-UGGGCUUGAGGCCUGAUCUUU-3’ (other strand not given here) | – | – | significant reduction of MYC protein | reduced cellular proliferation
